Assays:
CYP2E1 [1] = biological target: T1, CYP2E1 (Rattus norvegicus, UniProt P05182); test: In vivo inhibition of metabolism of DEN by CYP2E1 in rats (toxicokinetics of DEN); parameters: species or system SD rats
T1 construct: from tissue; host or cells: whole animal (SD rats); endogenous enzyme in vivo
Procedure: Experimental method: An inhibitory effect of the compound SMI0 on CYP2E1 in rats was investigated by a self-controlled crossover experiment design. In a first round of experiments, DEN alone was intraperitoneally injected at 50 mg/kg (30 SD rats in total) in the first week; after a one-week interval, a second round of experiments were conducted as follows: each rat was first intragastrically administered with the compound SMI0 at a low, medium, or high dose (6 mg/kg, 30 mg/kg, or 150 mg/kg), and 5 min later, each rat was intraperitoneally injected with DEN at 50 mg/kg (10 rats were set for each of low, medium, and high doses); blood was collected at 2 min, 7 min, 15 min, and 30 min and 1 h, 2 h, 4 h, 6 h, 9 h, 12 h, 24 h, 36 h, 48 h, and 60 h; a DEN concentration in plasma was determined at different blood collection time points, and a toxicokinetic parameter of DEN was calculated; and plasma DEN was detected by high performance liquid chromatography (HPLC) as follows: 100 μL of plasma was added to 10 μL of perchloric acid, a resulting mixture was vortexed for 3 min and then centrifuged at 12,000 rpm for 10 min, and 10 μL of a resulting supernatant was collected and injected into an instrument, where the PLC was conducted with methanol:water=50:50 as a mobile phase and a detection wavelength of 240 nm.

U251 glioma cells = test: Direct effect on U251 glioma cells in vitro (CCK8); format: cell-based, human; conditions: up to 128 μmol/L or 200 μmol/L
Procedure: Experimental method: GL261 murine glioma cells and U251 human glioma cells in a logarithmic growth phase each were selected and inoculated into a 96-well plate at a concentration of 5*10^5 cells/mL, then 100 μL of a cell suspension was added to each well, and 12 h later, a medium was discarded; 200 μL of a basic medium including SMI0 at different concentrations ([…]) was added to each well, and 24 h later, 10 μL of a CCK8 reagent was added to each well; and the cells were further cultivated for 2 h, and an absorbance OD value of each well was determined at 450 nm by a microplate reader. 3 replicates were set for each well, and an average was taken. The proliferation activity was calculated based on the OD value.

HepG2 liver cancer cells = test: Direct effect on HepG2 liver cancer cells; format: cell-based; conditions: up to 100 μmol/L, 24 h
Procedure: Experimental method: HepG2 liver cancer cells and H22 liver cancer cells in a logarithmic growth phase each were selected and inoculated into a 96-well plate at a concentration of 1*10^5 cells/mL, and then 100 μL of a basic medium including SMI0 at different concentrations (0 μmol/L, 0.16 μmol/L, 0.8 μmol/L, 4 μmol/L, 20 μmol/L, and 100 μmol/L) was added to each well; and 24 h later, the proliferation activity of HepG2 was determined by a CCK8 method, a migration ability of HepG2 was determined by wound-healing assay, and an apoptosis ability of HepG2 was determined by flow cytometry (FCM).

[2] = system: glioma cell line GL261 brain in situ transplanted tumor; test: Mouse glioma model, in situ implantation of GL261 cells into the brain; format: in vivo, C57/BL6 mouse
Procedure: Experimental method: A female C57/BL6 mouse glioma model was constructed through in situ implantation of a glioma cell line GL261, with a cell concentration of 1*10^6. Experimental groups: sham-operated group (n=9); model group (n=10); temozolomide group (50 mg/kg, ig, n=11); SMI0 low-dose group (3.3 mg/kg, ig, n=13); SMI0 medium-dose group (10 mg/kg, ig, n=13); and SMI0 high-dose group (30 mg/kg, ig, n=13). The SMI0 intervention group was intragastrically administered with the compound SMI0 every day starting from three days before modeling, and the positive drug group was administered on day 3 to day 7 and day 10 to day 14 after surgery. The modeling took about 21 days. At the end of the experiment, blood was collected from the orbit, a body weight was measured, then the mice each were sacrificed, and brain tissues were collected. Brain tissue specimens were subjected to HE staining, and then the brain tissue lesion and tumorigenesis of mice in each group were observed.

[3] = system: ovarian cancer ID-8 cell line in situ transplanted tumor; test: Mouse ovarian cancer in situ transplanted tumor model (ID-8); format: in vivo, C57/6 mouse; conditions: as high as; SMI0 30 mg/kg ig daily, 60-day modeling
Procedure: Experimental method: A female C57/6 mouse ovarian cancer in situ transplanted tumor model was constructed with a murine ovarian cancer ID-8 cell line at a cell concentration of 1×10^6. A model group and an SMI0 intervention group were set for the experiment. The intervention group was intragastrically administered with the SMI0 compound at 30 mg/kg every day from three days before modeling to the end of the 60-day modeling (model group, n=15; and SMI0 compound (30 mg/kg) group, n=12). At the end of the experiment, blood was collected from the orbit, a body weight was measured, then the mice each were sacrificed, and ovary tissues and tumor tissues were collected. Ovary tissue specimens were subjected to HE staining, and then the ovary tumor tissue and tumorigenesis of mice in each group were observed.

CYP2E1 [4] = biological target: T2, CYP2E1 (Mus musculus, UniProt Q05421); test: CYP2E1 activity (CZX metabolism by liver microsome) in LPS-induced mouse pulmonary fibrosis model; format: in vivo; conditions: liver microsome of SMI0 high-dose group vs model group, P<0.05
T2 construct: from tissue; host or cells: liver microsomes of treated model mice (calcium precipitation)
T2 sequence (Q05421 whole entry): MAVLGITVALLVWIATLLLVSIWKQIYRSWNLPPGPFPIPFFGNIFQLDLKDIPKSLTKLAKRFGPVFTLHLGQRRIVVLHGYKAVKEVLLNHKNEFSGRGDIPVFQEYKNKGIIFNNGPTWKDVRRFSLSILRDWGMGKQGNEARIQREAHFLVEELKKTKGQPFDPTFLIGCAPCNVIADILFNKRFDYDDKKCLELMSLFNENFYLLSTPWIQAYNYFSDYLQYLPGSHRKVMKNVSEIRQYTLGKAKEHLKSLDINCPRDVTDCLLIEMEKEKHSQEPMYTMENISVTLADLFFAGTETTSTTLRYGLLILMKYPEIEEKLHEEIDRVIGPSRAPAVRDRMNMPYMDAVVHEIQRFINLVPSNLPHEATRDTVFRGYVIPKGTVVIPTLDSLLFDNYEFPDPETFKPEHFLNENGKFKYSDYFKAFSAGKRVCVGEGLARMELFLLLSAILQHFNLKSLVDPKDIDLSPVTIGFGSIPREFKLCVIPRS
Procedure: Experimental method: A calcium precipitation method was used to prepare a mouse liver microsome, and a Braford method was used to determine a protein concentration in the microsome. An incubation system was prepared with 2×PBS, a CZX solution, and the liver microsome at a final concentration of 0.5 mg/mL, and then pre-incubated at 37° C. for 5 min; NADPH was added to initiate a reaction, and a resulting mixture was incubated at 37° C. for 30 min and then placed on ice to terminate the reaction; and ethyl acetate was added to extract 6-hydroxychlorzoxazone, a resulting mixture was vortexed and centrifuged, and a resulting upper organic phase was collected and blow-dried with nitrogen. A peak area of a CZX metabolite 6-hydroxychlorzoxazone was detected by HPLC under the following conditions: methanol:water=56:44, and detection wavelength: 287 nm. A concentration A C of the metabolite 6-hydroxychlorzoxazone was calculated through substitution into a standard curve; and a reaction rate of conversion of CZX into 6-hydroxychlorzoxazone was calculated according to V(pmol/min/mg)=(ΔC*1000)/(B*T) to evaluate an enzymatic activity of CYP2E1, where B represents a protein concentration of the microsome (mg/mL) and T represents an incubation time (min). A correlation between a CYP2E1 activity and a pulmonary fibrosis severity in mice was analyzed.

T1 sequence (P05182 whole entry): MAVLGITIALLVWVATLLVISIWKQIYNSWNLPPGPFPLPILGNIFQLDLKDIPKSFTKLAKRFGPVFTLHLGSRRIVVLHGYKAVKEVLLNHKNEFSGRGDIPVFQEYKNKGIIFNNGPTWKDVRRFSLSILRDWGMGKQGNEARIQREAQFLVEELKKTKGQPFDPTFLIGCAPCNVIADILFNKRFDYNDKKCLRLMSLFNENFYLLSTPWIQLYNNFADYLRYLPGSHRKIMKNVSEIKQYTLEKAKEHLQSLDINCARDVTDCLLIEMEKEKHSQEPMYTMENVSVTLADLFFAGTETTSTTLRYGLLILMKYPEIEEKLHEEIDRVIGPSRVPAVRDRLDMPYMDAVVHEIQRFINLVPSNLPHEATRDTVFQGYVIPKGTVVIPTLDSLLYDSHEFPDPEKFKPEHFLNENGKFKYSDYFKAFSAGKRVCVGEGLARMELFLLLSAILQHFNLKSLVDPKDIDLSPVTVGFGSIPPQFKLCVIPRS

## CC(=O)c1scnc1C [SMI0]
CYP2E1 [1]; SMI0 high dose 150 mg/kg ig
  inhibition rate (CL of DEN): 86.77%
CYP2E1 [1]; SMI0 low dose 6 mg/kg ig
  inhibition rate (CL of DEN): 62.43%
CYP2E1 [1]; SMI0 medium dose 30 mg/kg ig
  inhibition rate (CL of DEN): 80.42%
U251 glioma cells
  effect on the proliferation of U251 glioma cells: no significant inhibitory effect
HepG2 liver cancer cells
  effect on the proliferation, migration, and apoptosis of HepG2 liver cancer cells: no significant inhibitory effect
[2]; SMI0 intervention (3.3, 10, 30 mg/kg ig daily), about 21 days, vs model group
  glioma growth in mice: significantly inhibited
[2]; as high as, SMI0 high-dose group 30 mg/kg ig
  tumor proliferation inhibition rate: 97.6%
[3]
  ascites weight inhibition rate: 76.40%
  tumor proliferation inhibition rate: 63.14%
CYP2E1 [4]
  reaction rate V of CZX metabolism: significantly reduced
